Drawing on PubChem BioAssay AID200 (DTP/NCI, 2004), this text covers T/C for eight compounds.

This assay has as its system B6C3F1 mice, B16 melanoma ip, median survival T/C. In words: NCI In Vivo Anticancer Drug Screen. Data for tumor model B16 Melanoma (intraperitoneal) in B6C3F1 mice. The note with it: endpoint: median survival time, schedule: Q01DX009 (ip), higher = longer survival. Put shortly:
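Values are T/C ratios: the measurement in treated animals divided by that in vehicle-treated controls, using survival or tumor size in mice carrying transplantable tumors.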

[1] abbreviates: dose: 5.0 mg/kg/injection, vehicle: saline with Tween-80.
Setting [2] is: dose: 12.5 mg/kg/injection, vehicle: saline with Tween-80.
[3] abbreviates: dose: 25.0 mg/kg/injection, vehicle: saline with Tween-80.

Each structure is given as a SMILES string. Values joined by “and” are separate entries in the source; they are usually repeats but may differ in a detail not shown here. Identical values can stand only once. Toxic doses and inconclusive results are not listed.

`CC(C)NC(=O)OCc1c(COC(=O)NC(C)C)c(-c2ccc(Cl)c(Cl)c2)n2c1CCC2`: the T/C is 115 % of control (dose: 2.5 mg/kg/injection, vehicle: Klucel (hydroxypropylcellulose) (HPC)); 158 % of control (dose: 5.0 mg/kg/injection, vehicle: Klucel (hydroxypropylcellulose) (HPC)); 159 % of control under setting [1]; 166 % of control and 169 % of control and 176 % of control (dose: 6.25 mg/kg/injection, vehicle: distilled water + Tween-80); 153 % of control and 175 % of control (dose: 10.0 mg/kg/injection, vehicle: Klucel (hydroxypropylcellulose) (HPC)); 196 % of control (dose: 10.0 mg/kg/injection, vehicle: saline with Tween-80). Moreover, the T/C was 209 % of control (dose: 20.0 mg/kg/injection, vehicle: Klucel (hydroxypropylcellulose) (HPC)); 191 % of control (dose: 20.0 mg/kg/injection, vehicle: saline with Tween-80); 235 % of control and 256 % of control (dose: 40.0 mg/kg/injection, vehicle: Klucel (hydroxypropylcellulose) (HPC)); 251 % of control (dose: 40.0 mg/kg/injection, vehicle: saline with Tween-80); 89 % of control (dose: 80.0 mg/kg/injection, vehicle: saline with Tween-80).
As to `C[C@H](N)C(=O)N[C@@H]1[C@H]2C(=C(O)C[C@@H](O)[C@@H]2O)C(=O)O[C@]1(C)C(Cl)Cl`, the T/C by setting is: (dose: 0.18 mg/kg/injection, vehicle: Klucel (hydroxypropylcellulose) (HPC)) 95 % of control; (dose: 0.19 mg/kg/injection, vehicle: Klucel (hydroxypropylcellulose) (HPC)) 100 % of control; (dose: 0.37 mg/kg/injection, vehicle: Klucel (hydroxypropylcellulose) (HPC)) 101 % of control and 107 % of control; (dose: 0.38 mg/kg/injection, vehicle: Klucel (hydroxypropylcellulose) (HPC)) 105 % of control; (dose: 0.75 mg/kg/injection, vehicle: Klucel (hydroxypropylcellulose) (HPC)) 116 % of control and 104 % of control (2×); (dose: 1.5 mg/kg/injection, vehicle: Klucel (hydroxypropylcellulose) (HPC)) 112 % of control and 113 % of control and 118 % of control.
With `CCCCCCCCCCCCCCCC(=O)Nc1ccn(C2OC(CO)C(O)C2O)c(=O)n1` (stereo not given), the T/C (dose: 6.25 mg/kg/injection, vehicle: saline) is 98 % of control; the T/C (dose: 25.0 mg/kg/injection, vehicle: saline) was 157 % of control; the T/C (dose: 50.0 mg/kg/injection, vehicle: saline) was 180 % of control.
Turning to `O=C1NC(O)c2ccccc2O1` (stereo not given), the T/C is 99 % of control under setting [2]; 101 % of control (dose: 12.5 mg/kg/injection, vehicle: suspension in saline); 103 % of control under setting [3]; 103 % of control (dose: 25.0 mg/kg/injection, vehicle: suspension in saline); 103 % of control (dose: 50.0 mg/kg/injection, vehicle: saline with Tween-80); 101 % of control (dose: 50.0 mg/kg/injection, vehicle: suspension in saline). The T/C (dose: 100.0 mg/kg/injection, vehicle: saline with Tween-80) was 106 % of control; the T/C (dose: 100.0 mg/kg/injection, vehicle: suspension in saline) was 98 % of control; the T/C (dose: 200.0 mg/kg/injection, vehicle: saline with Tween-80) is 114 % of control; the T/C (dose: 200.0 mg/kg/injection, vehicle: suspension in saline) is 100 % of control; the T/C (dose: 400.0 mg/kg/injection, vehicle: suspension in saline) was 95 % of control.
On to `CCOC(=O)Nc1cc2c(c(N)n1)N=C(c1ccccc1)CN2`, for which the T/C is, setting by setting: (dose: 1.25 mg/kg/injection, vehicle: saline with Tween-80) 96 % of control; (dose: 2.5 mg/kg/injection, vehicle: saline with Tween-80) 102 % of control; under setting [1], 107 % of control.
With `COc1ccc2c(c1)CCn1c(C)c(COC(=O)NC(C)C)c(COC(=O)NC(C)C)c1-2`, the T/C was 114 % of control (dose: 1.5 mg/kg/injection, vehicle: distilled water + Tween-80); 154 % of control (dose: 3.0 mg/kg/injection, vehicle: distilled water + Tween-80); 150 % of control (dose: 3.12 mg/kg/injection, vehicle: distilled water + Tween-80); 163 % of control (dose: 12.0 mg/kg/injection, vehicle: distilled water + Tween-80); 180 % of control (dose: 12.5 mg/kg/injection, vehicle: distilled water + Tween-80).
In the case of `CC(C)(C)OC(=O)NCCCCC(NC(=O)OCC1c2ccccc2-c2ccccc21)C(=O)O` (stereo not given), the T/C (dose: 25.0 mg/kg/injection, vehicle: Klucel (hydroxypropylcellulose) (HPC)) was 100 % of control and the T/C (dose: 50.0 mg/kg/injection, vehicle: Klucel (hydroxypropylcellulose) (HPC)) was 95 % of control.
For the compound `COc1ccc(C(Cn2ccnc2)Sc2ccc(Cl)c(Cl)c2)cc1` (stereo not given), the T/C runs as follows: (dose: 3.12 mg/kg/injection, vehicle: saline with Tween-80) 94 % of control; (dose: 6.25 mg/kg/injection, vehicle: saline with Tween-80) 92 % of control and 96 % of control and 107 % of control; under setting [2], 95 % of control and 96 % of control and 103 % of control; under setting [3], 95 % of control and 97 % of control and 100 % of control.
